Assay results published in ChEMBL document CHEMBL3885881, “DrugMatrix”.

Organism: Rattus norvegicus
Experiment: DrugMatrix - Regimen: Daily Repeat
Format: toxicity, organism-based, Sprague-Dawley
Set-up: regimen Daily Repeat, gender Male, age 6-8 weeks
Settings: in vivo, po, route oral GAVAGE, vehicle 100 % WATER; for ABSOLUTE BASOPHIL / ABSOLUTE EOSINOPHIL / ABSOLUTE LYMPHOCYTE / ABSOLUTE MONOCYTE / ABSOLUTE SEGMENTED NEUTROPHIL / BASOPHIL / EOSINOPHIL / ERYTHROCYTE COUNT / HEMATOCRIT / HEMOGLOBIN / LEUKOCYTE COUNT / LYMPHOCYTE / MEAN CORPUSCULAR HEMOGLOBIN / MEAN CORPUSCULAR HEMOGLOBIN CONCENTRATION / MEAN CORPUSCULAR VOLUME / MONOCYTE / NEUTROPHIL / NUCLEATED RED BLOOD CELLS / PLATELET COUNT: tissue Blood; for ALANINE AMINOTRANSFERASE / ALBUMIN / ALKALINE PHOSPHATASE / ASPARTATE AMINOTRANSFERASE / BLOOD UREA NITROGEN / CARBON DIOXIDE / CHLORIDE / CHOLESTEROL / CREATINE PHOSPHOKINASE / CREATININE / GLUCOSE / LACTATE DEHYDROGENASE / LIPASE / PHOSPHORUS / POTASSIUM / SODIUM / TOTAL BILIRUBIN / TOTAL PROTEIN / URIC ACID: tissue Plasma
[1] = 0 mg/kg, 72 h, dose level Control, time 3 day
[2] = 0 mg/kg, 120 h, dose level Control, time 5 day
[3] = 100 mg/kg, 72 h, dose level Low, time 3 day

## NCC1(CC(=O)O)CCCCC1 [GABAPENTIN]
[1]
  ABSOLUTE BASOPHIL: 0 CELLS/uL
  ABSOLUTE EOSINOPHIL: 133.83 CELLS/uL
  ABSOLUTE LYMPHOCYTE: 11674.67 CELLS/uL
  ABSOLUTE MONOCYTE: 65.33 CELLS/uL
  ABSOLUTE SEGMENTED NEUTROPHIL: 1559.5 CELLS/uL
  BASOPHIL: 0%
  EOSINOPHIL: 1%
  ERYTHROCYTE COUNT: 5.26 x10E6/uL
  HEMATOCRIT: 34.15%
  HEMOGLOBIN: 13.6 G/DL
  LEUKOCYTE COUNT: 13.43 x10E3/uL
  LYMPHOCYTE: 86.83%
  MEAN CORPUSCULAR HEMOGLOBIN: 25.87 pg
  MEAN CORPUSCULAR HEMOGLOBIN CONCENTRATION: 39.85 G/DL
  MEAN CORPUSCULAR VOLUME: 64.93 fL
  MONOCYTE: 0.5%
  NEUTROPHIL: 11.67%
  NUCLEATED RED BLOOD CELLS: 0.17 /100WBC
  PLATELET COUNT: 1188.5 x10E3/uL
  ALANINE AMINOTRANSFERASE: 48.5 u/L
  ALBUMIN: 4.1 G/DL
  ALKALINE PHOSPHATASE: 338.83 u/L
  ASPARTATE AMINOTRANSFERASE: 84.17 u/L
  BLOOD UREA NITROGEN: 15.17 mg/dL
  CARBON DIOXIDE: 26.83 mmol/L
  CHLORIDE: 101.33 MEQ/L
  CHOLESTEROL: 77 mg/dL
  CREATINE PHOSPHOKINASE: 600.83 u/L
  CREATININE: 0.15 mg/dL
  GLUCOSE: 161.67 mg/dL
  LACTATE DEHYDROGENASE: 222.17 u/L
  LIPASE: 10.17 u/L
  PHOSPHORUS: 12.63 mg/dL
  POTASSIUM: 6.36 MEQ/L
  SODIUM: 143.17 MEQ/L
  TOTAL BILIRUBIN: 0.17 mg/dL
  TOTAL PROTEIN: 5.65 G/DL
  URIC ACID: 1.38 mg/dL
[2]
  ABSOLUTE BASOPHIL: 0 CELLS/uL
  ABSOLUTE EOSINOPHIL: 66.5 CELLS/uL
  ABSOLUTE LYMPHOCYTE: 10848.67 CELLS/uL
  ABSOLUTE MONOCYTE: 106.17 CELLS/uL
  ABSOLUTE SEGMENTED NEUTROPHIL: 1028.67 CELLS/uL
  BASOPHIL: 0%
  EOSINOPHIL: 0.5%
  ERYTHROCYTE COUNT: 5.42 x10E6/uL
  HEMATOCRIT: 34.53%
  HEMOGLOBIN: 14.07 G/DL
  LEUKOCYTE COUNT: 12.05 x10E3/uL
  LYMPHOCYTE: 90%
  MEAN CORPUSCULAR HEMOGLOBIN: 25.98 pg
  MEAN CORPUSCULAR HEMOGLOBIN CONCENTRATION: 40.73 G/DL
  MEAN CORPUSCULAR VOLUME: 63.78 fL
  MONOCYTE: 1%
  NEUTROPHIL: 8.5%
  NUCLEATED RED BLOOD CELLS: 0 /100WBC
  PLATELET COUNT: 1256.33 x10E3/uL
  ALANINE AMINOTRANSFERASE: 55.17 u/L
  ALBUMIN: 4.3 G/DL
  ALKALINE PHOSPHATASE: 333.83 u/L
  ASPARTATE AMINOTRANSFERASE: 81.33 u/L
  BLOOD UREA NITROGEN: 15.67 mg/dL
  CARBON DIOXIDE: 30 mmol/L
  CHLORIDE: 100.67 MEQ/L
  CHOLESTEROL: 67.67 mg/dL
  CREATINE PHOSPHOKINASE: 221.33 u/L
  CREATININE: 0.16 mg/dL
  GLUCOSE: 161.33 mg/dL
  LACTATE DEHYDROGENASE: 166.83 u/L
  LIPASE: 8.33 u/L
  PHOSPHORUS: 12.63 mg/dL
  POTASSIUM: 5.98 MEQ/L
  SODIUM: 144.63 MEQ/L
  TOTAL BILIRUBIN: 0.2 mg/dL
  TOTAL PROTEIN: 6.15 G/DL
  URIC ACID: 1.17 mg/dL
[3]
  ABSOLUTE BASOPHIL: 0 CELLS/uL
  ABSOLUTE EOSINOPHIL: 86.33 CELLS/uL
  ABSOLUTE LYMPHOCYTE: 13178.33 CELLS/uL
  ABSOLUTE MONOCYTE: 43 CELLS/uL
  ABSOLUTE SEGMENTED NEUTROPHIL: 1125.67 CELLS/uL
  BASOPHIL: 0%
  EOSINOPHIL: 0.67%
  ERYTHROCYTE COUNT: 5.28 x10E6/uL
  HEMATOCRIT: 34.3%
  HEMOGLOBIN: 13.73 G/DL
  LEUKOCYTE COUNT: 14.43 x10E3/uL
  LYMPHOCYTE: 91%
  MEAN CORPUSCULAR HEMOGLOBIN: 26.1 pg
  MEAN CORPUSCULAR HEMOGLOBIN CONCENTRATION: 40.1 G/DL
  MEAN CORPUSCULAR VOLUME: 65 fL
  MONOCYTE: 0.33%
  NEUTROPHIL: 8%
  NUCLEATED RED BLOOD CELLS: 0 /100WBC
  PLATELET COUNT: 1169.33 x10E3/uL
  ALANINE AMINOTRANSFERASE: 52.33 u/L
  ALBUMIN: 4.17 G/DL
  ALKALINE PHOSPHATASE: 377.67 u/L
  ASPARTATE AMINOTRANSFERASE: 80 u/L
  BLOOD UREA NITROGEN: 14.33 mg/dL
  CARBON DIOXIDE: 27.33 mmol/L
  CHLORIDE: 103 MEQ/L
  CHOLESTEROL: 71 mg/dL
  CREATINE PHOSPHOKINASE: 245 u/L
  CREATININE: 0.17 mg/dL
  GLUCOSE: 170.67 mg/dL
  LACTATE DEHYDROGENASE: 111.67 u/L
  LIPASE: 9.67 u/L
  PHOSPHORUS: 11.67 mg/dL
  POTASSIUM: 6.11 MEQ/L
  SODIUM: 144.87 MEQ/L
  TOTAL BILIRUBIN: 0.23 mg/dL
  TOTAL PROTEIN: 5.67 G/DL
  URIC ACID: 1.6 mg/dL
